Measurements as given in PubChem BioAssay (NCI).
Where “and” joins values, the source holds several entries; their conditions need not be identical. Identical values can stand only once.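 Assay format: 96-well plates, 48-hour exposure. Abbreviation: GI50, concentration required for 50% inhibition of growth. At the TGI there is no net growth.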

Tests used:
Assay in all cases: NCI-60 cell line screen, 48 h
786-0 renal = test system: 786-0 renal
U251 CNS = test system: U251 CNS
A549 NSCLC = test system: A549 NSCLC
OVCAR-3 ovarian = test system: OVCAR-3 ovarian
HT29 colon = test system: HT29 colon
KM12 colon = test system: KM12 colon
K-562 leukemia = test system: K-562 leukemia
OVCAR-4 ovarian = test system: OVCAR-4 ovarian
A498 renal = test system: A498 renal
BT-549 breast = test system: BT-549 breast
PC-3 prostate = test system: PC-3 prostate
MDA-MB-231 breast = test system: MDA-MB-231 breast
SK-MEL-2 melanoma = test system: SK-MEL-2 melanoma

Row | Compound | TGI (786-0 renal) | TGI (U251 CNS) | TGI (A549 NSCLC) | TGI (OVCAR-3 ovarian) | TGI (HT29 colon) | TGI (KM12 colon) | TGI (K-562 leukemia) | TGI (OVCAR-4 ovarian) | TGI (A498 renal) | TGI (BT-549 breast) | TGI (PC-3 prostate) | TGI (MDA-MB-231 breast) | TGI (SK-MEL-2 melanoma) | GI50 (U251 CNS) | GI50 (OVCAR-3 ovarian) | GI50 (SK-MEL-2 melanoma) | GI50 (KM12 colon) | GI50 (K-562 leukemia) | GI50 (OVCAR-4 ovarian) | GI50 (A498 renal)
1 | Cc1cn(C2CC(N(O)Cc3ccccc3)C(CO)O2)c(=O)[nH]c1=O (stereo unspecified) | > 100 µM | > 100 µM | > 100 µM | > 100 µM | > 100 µM | > 100 µM | > 100 µM | > 100 µM |  |  |  |  |  |  |  |  |  |  |  | 
2 | CCOC(=O)C1(C(=O)OCC)CN(CC)CN(c2ccccc2)C1 | 35.2 µM |  | 49.3 µM | 33.5 µM | 37.8 µM | > 100 µM | > 100 µM | 49.1 µM | > 100 µM | 86.6 µM |  |  |  |  |  |  |  |  |  | 
3 | CC(=O)c1sc2c(c1OC(=O)c1cccs1)c(=O)n(-c1ccccc1)c(=S)n2-c1ccccc1 | 15.5 µM | 26.7 µM | > 100 µM | 50.4 µM | 11.6 µM | 59 µM | 95.4 µM | 38.8 µM | 15.9 µM |  | 15.2 µM | 32.2 µM |  |  |  |  |  |  |  | 
4 | CC(C)CC1[C@@H](OCc2ccccc2)COS(=O)N1Cc1ccccc1 (stereo partly specified) | > 100 µM | > 100 µM | > 100 µM | > 100 µM | 40.2 µM | 96.2 µM | > 100 µM | > 100 µM |  |  | > 100 µM | > 100 µM | > 100 µM |  |  |  |  |  |  | 
5 | Cc1ccc2c(c1CCCC(C)(C)O)C(=O)C(=O)C(C(C)C)=C2O | > 100 µM | > 100 µM | > 100 µM | > 100 µM | > 100 µM | > 100 µM | > 100 µM | > 100 µM | > 100 µM |  |  |  | > 100 µM |  |  |  |  |  |  | 
6 | CCOC(=O)CC1c2ccc(O)cc2OC(=O)C1c1ccc([N+](=O)[O-])cc1 (stereo unspecified) | > 100 µM | > 100 µM | > 100 µM | > 100 µM | > 100 µM | 97.8 µM | > 100 µM | 92.3 µM | 89.1 µM |  | 67.2 µM | 48.6 µM | 40.1 µM |  |  |  |  |  |  | 
7 | COc1cc2c(cc1OC)C(O)[C@H](Br)C(C)(C)O2 (stereo partly specified) | > 100 µM | > 100 µM | > 100 µM | > 100 µM | > 100 µM | > 100 µM | > 100 µM | > 100 µM |  |  |  |  | > 100 µM |  |  |  |  |  |  | 
8 | O=C1C(Cl)C(c2ccccc2)N1n1cnc2ccccc2c1=O (stereo unspecified) | > 100 µM | > 100 µM | > 100 µM | > 100 µM | > 100 µM | > 100 µM | > 100 µM | > 100 µM |  |  |  |  | > 100 µM |  |  |  |  |  |  | 
9 | COc1ccc(C[N+]23C(CC[C@H]2c2ccccc2)CC[C@H]3c2ccccc2)cc1 (stereo partly specified) | > 100 µM | > 100 µM | > 100 µM | 37 µM | > 100 µM | 24.4 µM | > 100 µM | 84.1 µM | > 100 µM |  | 92.1 µM | 82.4 µM | 43 µM |  |  |  |  |  |  | 
10 | C=C1C(=O)O[C@H]2[C@H]1[C@@H](OC(=O)C=C(C)C)CC1=C[C@@H](C[C@@]3(C)O[C@@H]23)OC1=O |  | 32.2 µM and 42.5 µM | 63 µM and 39.7 µM | 4.77 µM and 15.6 µM | 12.5 µM | 15.7 µM and 29.7 µM | 50.2 µM and 9.4 µM | 20.6 µM and 13.7 µM | 26.5 µM and 39.2 µM |  |  |  | 17.6 µM and 30 µM | 24 µM | 4.92 µM | 13 µM | 10.4 µM | 1.02 µM and 3.16 µM | 4.55 µM | 21.3 µM
11 | N#Cc1sc2nc(/C=C3/C=CC=CC3=O)c(O)n2c1N | > 100 µM | > 100 µM | > 100 µM | > 100 µM | > 100 µM | > 100 µM | 55.9 µM | > 100 µM | > 100 µM |  | > 100 µM | > 100 µM | > 100 µM |  |  |  |  |  |  | 
12 | Cc1ccc(C2CC(c3ccco3)=NN2c2ccccc2)o1 (stereo unspecified) | > 100 µM | > 100 µM | > 100 µM | > 100 µM | > 100 µM | > 100 µM | > 100 µM | > 100 µM |  |  |  |  | > 100 µM |  |  |  |  |  |  | 
13 | CC(C)(C)C(=O)/C=C/c1ccc(Oc2ccccc2)cc1 | 40 µM | 28.4 µM | 94.3 µM |  | 25 µM | 33.9 µM | 36 µM |  | 32.7 µM |  |  |  | 37.9 µM |  |  |  |  |  |  | 
14 | C/C(=C1/CCCC2(N=NCC2c2ccccc2)C1=O)c1ccccc1 (stereo unspecified) | > 100 µM | 72 µM | 92.6 µM | 40.3 µM | 56.7 µM | 31.3 µM | 41.4 µM | > 100 µM |  |  |  |  | 42.1 µM |  |  |  |  |  |  | 
15 | COc1c(C)c2c(c(C)c1Cl)Oc1c(C=O)c(O)c(Cl)c(C)c1C(=O)O2 | > 100 µM | 44.9 µM | > 100 µM | 30.8 µM | > 100 µM | > 100 µM | 97 µM |  | 58.8 µM |  |  |  |  |  |  |  |  |  |  | 
16 | COc1cc2c(cc1OCc1ccccc1)CNCC2 | > 100 µM | > 100 µM | > 100 µM | > 100 µM | > 100 µM | > 100 µM | > 100 µM | > 100 µM | > 100 µM |  |  |  | > 100 µM |  |  |  |  |  |  | 
17 | CC12CCC(C(=O)OC1=O)C2(C)C (stereo unspecified) | > 100 µM | > 100 µM |  | > 100 µM | > 100 µM | > 100 µM | > 100 µM | > 100 µM | > 100 µM |  | > 100 µM | > 100 µM | > 100 µM |  |  |  |  |  |  | 
18 | Cc1cccc(NC(=O)/C=C/c2ccc(N(CCC#N)CCC#N)cc2C)c1 | > 100 µM | > 100 µM | > 100 µM | > 100 µM | > 100 µM | > 100 µM | > 100 µM | > 100 µM | > 100 µM |  |  |  | > 100 µM |  |  |  |  |  |  | 
19 | COc1ccc(C(=O)C(CO)Oc2ccccc2OC)cc1OC (stereo unspecified) | > 100 µM | > 100 µM | > 100 µM | > 100 µM | > 100 µM | > 100 µM | > 100 µM | > 100 µM | > 100 µM |  |  |  | > 100 µM |  |  |  |  |  |  | 
20 | CNC(=S)N/N=C(C)\C(=N/NC(=S)NC)c1ccccc1 | > 100 µM |  | > 100 µM | > 100 µM |  | > 100 µM |  |  |  | > 100 µM | > 100 µM | > 100 µM |  |  |  |  |  |  |  | 
